Active and inactive are the calls of the source. The calls are words filed in the database; no cut-off is given here.
How the values were obtained:
[1] = target: T1, Soluble guanylate cyclase (Homo sapiens) (UniProt Q02153+O75343+P33402+Q02108); test: Effect on cGMP production in porcine iris-ciliary body at 100 uM; assay type: functional; conditions: Sus scrofa, target entry is the homologue from another species
[2] = target: T1, Soluble guanylate cyclase (Homo sapiens); test: Effect on cGMP production in porcine iris-ciliary body at 10 uM; assay type: functional; conditions: Sus scrofa, target entry is the homologue from another species
Oryctolagus cuniculus [3] = test: Lowering of intraocular pressure in rabbit eye at 10 mM administered topically; assay type: functional, organism-based
Oryctolagus cuniculus [4] = species on record: Oryctolagus cuniculus; test: Lowering of intraocular pressure in rabbit eye intravitreally injected with 10 mM; assay type: functional, organism-based

## Cn1cncc1C(=N)NOC(=O)C(C)(C)C
[1]
  Activity: 0.24 pmol/mg
[2]
  Activity: 0.63 pmol/mg
Oryctolagus cuniculus [3]
  Activity: inactive

## CC(=O)ONC(=N)c1cncn1C
Oryctolagus cuniculus [4]
  Activity: inactive
Oryctolagus cuniculus [3]
  Activity: inactive

## CC(=O)O/N=C(/c1c[nH]cn1)[N+](=O)[O-]
[1]
  Activity: 0.78 pmol/mg
[2]
  Activity: 0.45 pmol/mg
Oryctolagus cuniculus [3]
  Activity: inactive

## CCCC(=O)O/N=C(/c1c[nH]cn1)[N+](=O)[O-]
[1]
  Activity: 0.38 pmol/mg
[2]
  Activity: 0.5 pmol/mg
Oryctolagus cuniculus [3]
  Activity: inactive

## CC(C)(C)C(=O)O/N=C(/c1c[nH]cn1)[N+](=O)[O-]
[1]
  Activity: 0.73 pmol/mg
[2]
  Activity: 0.36 pmol/mg
Oryctolagus cuniculus [3]
  Activity: inactive

## CCCC(=O)ONC(=N)c1cncn1C
[1]
  Activity: 0.24 pmol/mg
[2]
  Activity: 0.23 pmol/mg
Oryctolagus cuniculus [3]
  Activity: inactive
